# “And” between values parts separate entries of the source, which are not always exact repeats. Equal values may be shown once.
# Target: SARS-CoV-2 Main Protease (SARS-CoV-2) (UniProt P0DTD1)
row,SMILES,IC50
1,Cc1cn2nnc(C(=O)N(c3ccc(C(C)(C)C)cc3)C(C(=O)NCCc3cccc(F)c3)c3cccnc3)c2c(=O)[nH]1 (configuration not stated),> 99.5 µM
2,CCCCN1C(=O)C(=O)c2cc(Br)cc(C)c21,> 99.5 µM
3,O=C(Cc1cc(Cl)cc(Nc2cc(Cl)c(O)c(Cl)c2)c1)Nc1cncc2ccccc12,6.9 µM
4,Cc1cc(C(=O)Nc2cnc3nccn3c2)nn1-c1ccc(F)cc1,> 99.5 µM
5,CNC(=O)C1(N2CC3(CCN(c4cncc5cc(S(C)(=O)=O)ccc45)C3=O)c3cc(Cl)ccc3C2=O)CC1 (configuration not stated),0.265 µM
6,O=C(Cc1cc(Cl)cc(NCc2ccc3c(c2)OCO3)c1)Nc1cncc2ccccc12,2.52 µM
7,C=CC(=O)N(c1ccc(C(C)(C)C)cc1)C(C(=O)NCCOC)c1cccnc1 (configuration not stated),55.8 µM
8,CN(C)CCOc1ccc2cncc(NC(=O)C3CN(S(=O)(=O)CC4(C#N)CC4)Cc4ccc(Cl)cc43)c2c1 (configuration not stated),0.117 µM
9,O=C(Nc1cncc2ccccc12)C1CCOc2c(OCc3ccccc3)cc(Cl)cc21 (configuration not stated),36.5 µM
10,O=C(Cc1cccc(Cl)c1)Nc1[nH]nc2cccnc12,> 99.5 µM
11,O=C(Cc1cccc(Cl)c1)Nc1cncc2c1CCC2,5.16 µM
12,C=CC(=O)NCCC(=O)N(Cc1ccccc1)Cc1nc2ccccc2c(=O)[nH]1,> 99.5 µM
13,COc1ccccc1NC1CN(C(=O)c2cc(=O)[nH]c3ccccc23)C1,> 99.5 µM
14,COC1(c2cccc(Cl)c2)CCCN(c2cncc3ccccc23)C1=O (configuration not stated),2.08 µM
15,C=CC(=O)N(c1ccc(C(C)(C)C)cc1)C(C(=O)Nc1ccc(OC)cc1C)c1cccnc1 (configuration not stated),> 99 µM
16,Cc1cc(C)[n+](C)c(C#N)n1,> 99.5 µM
17,COc1ccncc1NC(=O)Cc1cccc(Cl)c1,21.6 µM
18,C=CC(=O)NCc1ccccc1S(=O)(=O)NC,> 99.5 µM
19,O=C(Cc1cc(Cl)cc(Nc2ncccc2OCc2ccccc2)c1)Nc1cncc2ccccc12,2 µM
20,N#Cc1ccc(CN2CCC(C3CCNC3)CC2)cc1 (configuration not stated),2.06 µM
21,O=C(c1cc(=O)[nH]c2ccccc12)N1CCN(c2ccc(F)cc2)CC1,16.5 µM
22,O=C(Nc1ccc(F)cc1)[C@@H]1CN(C(=O)CCl)CCN1S(=O)(=O)c1ccsc1 (stereo in doubt),0.593 µM
23,Cc1ccc2ncnc(NCc3ccc4nonc4c3)c2c1,> 99.5 µM
24,Cn1ccc2cc(N(C(=O)c3cnc[nH]3)C(C(=O)NCCc3cccc(F)c3)c3cccnc3)ccc21 (configuration not stated),> 99 µM
25,CNC(=O)CN1CC(C)(C(=O)Nc2cncc3cc(F)ccc23)c2cc(Cl)ccc2S1(=O)=O (configuration not stated),0.248 µM
26,O=C(NCCc1cccc(F)c1)C(c1cccnc1)N(C(=O)c1cocn1)c1ccc(S(=O)(=O)C2CCCC2)cc1 (configuration not stated),> 99.5 µM

row,SMILES,IC50
1,COc1ccc(C(Cc2cnn(C)c2)C(=O)Nc2c[nH]c3ccccc23)cc1 (configuration not stated),> 99.5 µM
2,C=CC(=O)NCc1ccccc1S(=O)(=O)NC(C)(C)C,> 99.5 µM
3,N#Cc1nccn1CCc1cccc(Cl)c1,> 99.5 µM
4,CN1CCN(c2ccc(F)cc2C(=O)N2CCC(C3CCNC3)CC2)CC1 (configuration not stated),> 99.5 µM
5,O=C(NCc1ccc2[nH]c(=O)[nH]c2c1)Nc1ccc(F)c(F)c1,> 99.5 µM
6,N#CC1(CS(=O)(=O)N2Cc3ccc(Cl)cc3C3(CCN(c4cncc5ccccc45)C3=O)C2)CCC1 (configuration not stated),0.263 µM
7,O=C(Cc1cccc(Cl)c1)Nc1cncc2ccc(OCC(F)(F)F)cc12,1.09 µM
8,COc1cccc(CNc2cc(Cl)cc(CC(=O)Nc3cncc4ccccc34)c2)c1OC,2.48 µM
9,COc1ccc(N2CCN(C(=O)c3cc(=O)[nH]c4ccccc34)CC2)cc1,14.7 µM
10,Cc1nn(-c2cc(Cl)cc(CC(=O)Nc3cncc4ccccc34)c2)c(N)c1Br,1.72 µM
11,CC(=O)N1CCN(CC(=O)Nc2cnccc2C2CC2)CC1,> 99.5 µM
12,Cc1csc2ncc(C(=O)N3C4CCC3c3ccccc34)c(=O)n12,> 99.5 µM
13,CCCCc1nc(-c2nccn2CCc2ccccn2)c[nH]1,21.7 µM
14,COc1ccc2c(NC(=O)Cc3cccc(Cl)c3)cncc2c1,8.63 µM
15,CC(=O)C(=O)N1CCN(Cc2cccc(Cl)c2)CC1,> 99.5 µM
16,CC(NC(=O)Nc1ccn2ccnc2c1)c1ccc2[nH]c(=O)oc2c1 (configuration not stated),> 99.5 µM
17,O=C(NCCc1ccccc1)[C@@H](c1ccccc1)N1Cc2ccccc2C1=O (stereo in doubt),> 99.5 µM
18,Cc1cc(Nc2cc(Cl)cc(CC(=O)Nc3cncc4ccccc34)c2)ncc1I,2.35 µM
19,COC(=O)CN1Cc2ccc(Cl)cc2C(C(=O)Nc2cncc3ccccc23)C1 (configuration not stated),1.55 µM
20,O=C(Cc1cc(Cl)cc(Nc2c(F)cc(F)cc2[N+](=O)[O-])c1)Nc1cncc2ccccc12,2.04 µM
21,O=C(Cc1cccc(Cl)c1)NC1COCc2ccccc21 (configuration not stated),69 µM
22,Cc1cc(Br)cc(C)c1Nc1cc(Cl)cc(CC(=O)Nc2cncc3ccccc23)c1,1.71 µM
23,CC(C)(C)OC(=O)N1CCC(NC(=O)C(c2cccnc2)N(C(=O)c2cocn2)c2ccc(C(C)(C)C)cc2)C1 (configuration not stated),3.65 µM
24,O=C(NC1N=Nc2ccccc21)C1CCOc2ccc(Cl)cc21 (configuration not stated),> 99.5 µM
25,COC1(CS(=O)(=O)N2Cc3ccc(Cl)cc3C3(CCN(c4cncc5ccc(OCCN(C)C)cc45)C3=O)C2)CC1 (configuration not stated),0.181 µM
26,O=C1CCCCN1c1ccc(N(Cc2ccccc2)C(=O)Cc2[nH]nc3ccccc23)cc1,39.4 µM

row,SMILES,IC50
1,COc1ccc2cncc(NC(=O)C3CCOc4cc(F)c(Cl)cc43)c2c1 (configuration not stated),0.101 µM and 0.114 µM
2,COc1ccc2c(NC(=O)Cc3cccc(Cl)c3)[nH]nc2c1,> 99.5 µM
3,CC(C(N)=O)c1cc(Cl)cc(CC(=O)Nc2cncc3ccccc23)c1 (configuration not stated),2.62 µM
4,Cc1ccc(N(Cc2cscn2)C(=O)Cc2cncc3ccccc23)nc1,> 99.5 µM
5,O=C(Cc1cc(Cl)cc(Nc2cccc(C(F)(F)F)n2)c1)Nc1cncc2ccccc12,2.13 µM
6,N#CCc1cccc(NC(=O)c2cnn3cc(Br)cnc23)n1,> 99.5 µM
7,CN(C)CCOc1ccc2cncc(NC(=O)C3CN(S(=O)(=O)CC4(C)CS(=O)(=O)C4)Cc4ccc(Cl)cc43)c2c1 (configuration not stated),0.125 µM
8,CC(C)(C)c1ccc(N(C(=O)c2nccs2)C(C(=O)NCCc2cccc(F)c2)c2cccnc2)cc1 (configuration not stated),0.8 µM
9,C[C@H]1CN(c2cc(Cl)cc(CC(=O)Nc3cncc4ccccc34)c2)CCN1C(=O)OC(C)(C)C (stereo in doubt),2.61 µM
10,O=C1CC(NC(=O)C2CCOc3ccc(Cl)cc32)CN1 (configuration not stated),> 99.5 µM
11,CC(C)(C)c1ccc(N(C(=O)c2cocn2)C(C(=O)NC2CC(F)(F)C2)c2cccnc2)cc1 (configuration not stated),2.35 µM
12,O=C(Cc1cc(Cl)cc(NCc2ccc(F)c(Cl)c2)c1)Nc1cncc2ccccc12,2.49 µM
13,Cc1ccc2cncc(NC(=O)Cc3cccc(Cl)c3)c2c1,0.537 µM
14,COc1ccc(Cl)c(Nc2cc(Cl)cc(CC(=O)Nc3cncc4ccccc34)c2)c1,1.7 µM
15,COC1CN(S(=O)(=O)N2Cc3ccc(Cl)cc3C3(CCN(c4cncc5ccccc45)C3=O)C2)C1 (configuration not stated),0.224 µM
16,C=CC(=O)N(Cc1ccccc1Cl)C(C(=O)NC)c1cncc2ccccc12 (configuration not stated),> 99.5 µM
17,N#Cc1ncc(Cl)cn1,> 99.5 µM
18,Cc1ccncc1NC(=O)Cc1cc(Cl)cc(NS(N)(=O)=O)c1,11.3 µM
19,Cn1ncc2c(NCc3ccc4cccnc4c3)ncnc21,> 99.5 µM
20,C=CC(=O)Nc1cc(C(=O)NC[C@H](Cc2ccccc2)c2ccccn2)ccc1O (stereo in doubt),> 99.5 µM
21,COc1ccccc1OC1CCN(C(=O)c2cc(=O)[nH]c3ccccc23)C1 (configuration not stated),> 99.5 µM
22,Cc1c(Nc2cc(Cl)cc(CC(=O)Nc3cncc4ccccc34)c2)c(=O)n(-c2ccccc2)n1C,3.41 µM
23,C[C@@]1(C(=O)Nc2cncc3c2CCCC3)CNS(=O)(=O)c2ccc(Cl)cc21 (stereo in doubt),3.72 µM
24,CC(C)(C)c1ccc(N(C(=O)c2cnc[nH]2)C(C(=O)NCCc2cccc(F)c2)c2cc(=O)[nH]c3ccccc23)cc1 (configuration not stated),1.31 µM
25,C[n+]1ccn(CCCc2cccc(Cl)c2)c1C#N,> 99.5 µM
26,COc1ccc(N(C(C)=O)c2cc(Cl)cc(CC(=O)Nc3cncc4ccccc34)c2)cc1N,2.71 µM

row,SMILES,IC50
1,CCN(C)S(=O)(=O)N1Cc2ccc(Cl)cc2C2(CCN(c3cncc4ccccc34)C2=O)C1 (configuration not stated),0.563 µM
2,CC1(C(=O)Nc2cncc3cc(S(C)(=O)=O)ccc23)CN(CC2CC2)S(=O)(=O)c2ccc(Cl)cc21 (configuration not stated),0.615 µM
3,O=C1CCCN1Cc1cccc(C(=O)N2CCC(C3CCNC3)CC2)c1 (configuration not stated),> 99.5 µM
4,Cc1ccc(NCc2nnc3n(C)c(=O)c4ccccc4n23)cc1C,> 99.5 µM
5,CCN(CC)S(=O)(=O)c1ccc(Nc2cc(Cl)cc(CC(=O)Nc3cncc4ccccc34)c2)cc1,2.15 µM
6,Cc1nc(CN2Cc3ccc(Cl)cc3C(C(=O)Nc3cncc4ccc(F)cc34)C2)cs1 (configuration not stated),1.12 µM
7,O=C1CCN(S(=O)(=O)c2cccc(F)c2)CC1,> 99.5 µM
8,CC(C)(C)c1ccc(N(C(=O)c2nnc(S)[nH]c2=O)C(C(=O)NCCc2cccc(F)c2)c2cccnc2)cc1 (configuration not stated),> 99.5 µM
9,O=C(Cc1cc(Cl)cc(Nc2cc(Cl)cc(Cl)c2O)c1)Nc1cncc2ccccc12,9.19 µM
10,NS(=O)(=O)c1ccc2c(c1)CN(CC1CCN(C(=O)CCl)CC1)CC2,19.5 µM
11,Cc1ccncc1NC(=O)Cc1cc(Cl)cc(CNS(C)(=O)=O)c1,16.6 µM
12,O=C(NCCc1cccc(F)c1)C(c1cccnc1)N(Cc1ccccc1)C(=O)c1cnc[nH]1 (configuration not stated),> 99 µM
13,CN(C)C(=O)CNC(=O)C(c1cccnc1)N(C(=O)c1ccco1)c1ccc(C(C)(C)C)cc1 (configuration not stated),10.9 µM
14,COC(=O)[C@@H]1C[C@H](NC(=O)C(c2cccnc2)N(C(=O)c2cocn2)c2ccc(C(C)(C)C)cc2)CN1C(=O)OC(C)(C)C (stereo in doubt),2.66 µM
15,O=C(Cc1c[nH]c2cc(Cl)ccc12)Nc1cccc2[nH]c(=O)[nH]c12,> 99.5 µM
16,O=C1CCN(S(=O)(=O)c2cccs2)CC1,> 99.5 µM
17,Cc1cc2ncc(C(=O)Nc3ccc4oc(C)nc4c3)c(C)n2n1,> 99.5 µM
18,CC1(C(=O)Nc2cncc3cc(S(C)(=O)=O)ccc23)CN(CC(=O)NC2CC2)S(=O)(=O)c2ccc(Cl)cc21 (configuration not stated),0.468 µM
19,O=C(CC1(C(=O)Nc2cncc3ccccc23)CCOc2ccc(Cl)cc21)Nc1nnco1 (configuration not stated),> 99.5 µM
20,O=C(Cc1cc(Cl)cc(N2CCC(Oc3ccccc3)CC2)c1)Nc1cncc2ccccc12,1.73 µM
21,CS(=O)(=O)c1ccc2c(NC(=O)C3CN(CC(=O)NC4CCC4)C(=O)c4ccc(Cl)cc43)cncc2c1 (configuration not stated),0.252 µM
22,O=C(CCl)N1CCN(S(=O)(=O)c2cccs2)CC1,2.07 µM and 2.26 µM
23,O=C(Cc1cc(Cl)cc(-c2nnn[nH]2)c1)Nc1cncc2ccccc12,21.4 µM
24,O=C(NCCc1cccc(F)c1)C(c1cccnc1)N(C(=O)c1cocn1)C1CCc2ccccc21 (configuration not stated),> 99.5 µM

# — the COVID Moonshot data (paper PMC7615835)
